The results in this text go back to patent US20250066370A1, “BICYCLIC TRIAZINE DERIVATIVES FOR THE TREATMENT OF CANCER” (DEUTSCHES KREBSFORSCHUNGSZENTRUM, priority 2022, published 2025).

Common to all, as to assay type: cell-based
One experiment relates to BT474. Put plainly: Proliferation assay: cell line panel, BT474. As to conditions: Homo sapiens, BT-474, 96 h, breast cancer, HER2 positive, 4 days, read-out: Result Category, IC50 (mean). The source says: (§1) Human tumour cells were originally obtained from the American Type Culture Collection (ATCC), from Cell Line Services GmbH (CLS), from the Deutsche Sammlung von Mikroorganismen und Zellkulturen (DSMZ, German Collection of Microorganisms and Cell Cultures), from the Japanese Cancer Research Resources Bank (JCRB), from Public Health England, from the European Collection of Authenticated Cell Cultures (ECACC), from Asterand Biosciences, or from the National Cancer Institute (NCI). Cultivated tumour cells were plated at the density as indicated in Table 6 in 96-well multitier plates in 200 microL of their respective growth medium supplemented 10% fetal calf serum. […] Cell proliferation was determined by staining the cells with crystal violet: the cells were fixed by adding 20 microL/measuring point of an 11% glutaric aldehyde solution for 15 minutes at room temperature. […] The extinction was determined by photometry at a wavelength of 595 nm. The change of cell number, in percent, was calculated by normalization of the measured values to the extinction values of the zero-point plate (=0%) and the extinction of the untreated (0 μM) cells (=100%). […]

In another experiment the test system is EFM192A. Description: Proliferation assay: cell line panel, EFM192A. As to conditions: Homo sapiens, EFM-192A, 96 h, breast cancer, HER2 positive, 4 days, read-out: Result Category, IC50 (mean).
Source text: as §1

Another experiment concerns HCC1419. Put plainly: Proliferation assay: cell line panel, HCC1419. Particulars: Homo sapiens, 96 h, breast cancer, HER2 positive, 4 days, read-out: Result Category, IC50 (mean).
Source text: as §1

The next experiment relates to CAL-120. Put plainly: Proliferation assay: cell line panel, CAL-120. As to conditions: Homo sapiens, 96 h, breast cancer, triple-negative, 4 days, read-out: Result Category, IC50 (mean).
Source text: as §1

Another experiment relates to HCC1143. Description: Proliferation assay: cell line panel, HCC1143. As to conditions: Homo sapiens, 96 h, breast cancer, triple-negative, 4 days, read-out: Result Category, IC50 (mean).
Source text: as §1

Another experiment has as its system HCC1806. Description: Proliferation assay: cell line panel, HCC1806. As to conditions: Homo sapiens, 96 h, breast cancer, triple-negative, 4 days, read-out: Result Category, IC50 (mean).
Source text: as §1

In a further experiment the test system is MDA-MB-231. Description: Proliferation assay: cell line panel, MDA-MB-231. As to conditions: Homo sapiens, 96 h, breast cancer, triple-negative, 4 days, read-out: Result Category, IC50 (mean).
Source text: as §1

Another experiment deals with MDA-MB-468. Put plainly: Proliferation assay: cell line panel, MDA-MB-468. As to conditions: Homo sapiens, 96 h, breast cancer, triple-negative, 4 days, read-out: Result Category, IC50 (mean).
Source text: as §1

A further experiment deals with HUH-7. Description: Proliferation assay: cell line panel, HUH-7. As to conditions: Homo sapiens, 96 h, liver cancer, 4 days, read-out: Result Category, IC50 (mean).
Source text: as §1

Another experiment deals with COV318. Description: Proliferation assay: cell line panel, COV318. As to conditions: Homo sapiens, 96 h, ovarian cancer, 4 days, read-out: Result Category, IC50 (mean).
Source text: as §1

A value given as a limit tells only on which side of the number the result lay.

`FC(F)(F)c1ccc(-c2cnc(CNc3nc(N4CCOCC4)nn4c(C(F)(F)F)cnc34)[nH]2)cc1` [Example 7, 2-(morpholin-4-yl)-7-(trifluoromethyl)-N-({5-[4-(trifluoromethyl)phenyl]-1H-imidazol-2-yl}methyl)imidazo[2,1-f][1,2,4]triazin-4-amine]: the IC50 (commonly the concentration needed to halve the response being measured) in the experiment on BT474 is 30 to 100 nM; in the experiment with EFM192A, at least 100 nM; in the experiment on HCC1419, 30 to 100 nM; in the experiment with CAL-120, at least 100 nM; in the experiment with HCC1143 it was at least 100 nM; with HCC1806, at least 100 nM. The IC50 in the experiment with MDA-MB-231 is 30 to 100 nM; with MDA-MB-468, 30 to 100 nM; in the experiment on HUH-7, 30 to 100 nM; in the experiment on COV318, at least 100 nM.

Turning to `FC(F)(F)Oc1ccc(-c2cnc(CNc3nc(N4CCOCC4)nn4c(C(F)(F)F)cnc34)[nH]2)cc1` [Example 8, 2-(morpholin-4-yl)-N-({5-[4-(trifluoromethoxy)phenyl]-1H-imidazol-2-yl}methyl)-7-(trifluoromethyl)imidazo[2,1-f][1,2,4]triazin-4-amine], the IC50 was 30 to 100 nM with BT474; at least 100 nM in the experiment with EFM192A; 30 to 100 nM with HCC1419; 30 to 100 nM with CAL-120; at least 100 nM with HCC1143; 30 to 100 nM in the experiment on HCC1806. For the same compound, the IC50 in the experiment with MDA-MB-231 is at least 100 nM; in the experiment on MDA-MB-468, 30 to 100 nM; in the experiment with HUH-7, 30 to 100 nM; in the experiment with COV318 it was at least 100 nM.
